From patent publication US5612217A, “Streptomyces sp. MA 7074 (ATCC 55605) used for microbial synthesis of HIV protease inhibitors” (Merck & Co., Inc., priority 1994, dated 1997)

Target: T1, HIV protease (Human immunodeficiency virus type 1 group M subtype B, UniProt P03366)
T1 construct: the protease expressed in Eschericia coli; made in house; host or cells: Escherichia coli
Experiment: Assay for inhibition of microbial expressed HIV protease (in vitro, peptide substrate cleavage, HPLC)
Assay type: biochemical
Settings: for % Potency Relative to Compound J, Based On Nominal Wt. / % Potency Relative to Compound J, Based on HPLC: IC50 of Compound J / IC50 of test compound x 100; for % Potency Relative to Compound J, Based On Nominal Wt.: dilution based on nominal weight; for % Potency Relative to Compound J, Based on HPLC: concentration checked by HPLC using J as standard
Method: Inhibition studies of the reaction of the protease expressed in Eschericia coli with a peptide substrate [Val-Ser-Gln-Asn-(betanapthyl)Ala-Pro-Ile-Val, 0.5 mg/mL at the time the reaction is initiated] were in 50 mM Na acetate, pH 5.5, at 30° C. for 1 hour. Various concentrations of inhibitor in 1.0 μl DMSO were added to 25 μl of the peptide solution in water. The reaction is initiated by the addition of 15 μl of 0.33 nM protease (0.11 ng) in a solution of 0.133M Na acetate pH 5.5 and 0.1% bovine serum albumin. The reaction was quenched with 160 μl of 5% phosphoric acid. Products of the reaction were separated by HPLC (VYDAC wide pore 5 cm C-18 reverse phase, acetonitrile gradient, 0.1% phosphoric acid). The extent of inhibition of the reaction was determined as IC50 from the peak heights of the products.
Seven Compound J bioconversion products were assayed for in vitro HIV protease inhibitory by the assay for inhibition of microbial expressed HIV Protease, protocol given above. Two of the bioconversion products were isolated from MA7074 incubations, Compounds B1 and F. The IC50 of the parent Compound J was divided by the IC50 of each test compound and multiplied by 100 in order to calculate the percent potency of each compound relative to J.
In some cases, the dilution of the test compound was based on nominal weight. In other cases, especially when the weight was less than 250 μg, the concentration was checked by HPLC using J as standard.

Compound | % Potency Relative to Compound J, Based On Nominal Wt. [%] | % Potency Relative to Compound J, Based on HPLC [%] | HIV-protease activity (in words) (qualitative statement, compared with Compound J where stated)
CC(C)(C)NC(=O)[C@@H]1CN(Cc2cccnc2)CCN1C[C@@H](O)C[C@@H](Cc1ccccc1)C(=O)N[C@H]1c2ccccc2[C@H](O)[C@H]1O [A] | 27 | – | –
CC(C)(C)NC(=O)[C@@H]1CN(Cc2cccnc2)CCN1C[C@@H](O)C[C@@H](Cc1ccccc1)C(=O)N[C@H]1c2ccccc2[C@@H](O)[C@H]1O [Compound B1] | – | 115 | –
CC(C)(C)NC(=O)[C@@H]1CN(Cc2cccnc2)CCN1C[C@@H](O)C[C@@H](Cc1ccccc1)C(=O)N[C@H]1c2ccccc2C(=O)[C@H]1O [Compound F] | 16 | – | less HIV-protease activity than Compound J
CC(C)(C)NC(=O)[C@@H]1CN(Cc2cccnc2)CCN1C[C@@H](O)C[C@@H](Cc1ccc(O)cc1)C(=O)N[C@H]1c2ccccc2C[C@H]1O [D] | 3.1 | 31 | –
CC(C)(C)NC(=O)[C@@H]1CN(Cc2ccc[n+]([O-])c2)CCN1C[C@@H](O)C[C@@H](Cc1ccccc1)C(=O)N[C@H]1c2ccccc2C[C@H]1O [E] | 34 | – | –
